# Data reported in patent US12077495B2 (priority 2018, dated 2024).
# pKi: −log10 of the molar value. Where two headings read alike, the source gives them in different places.
# Columns and labels:
# [1] = target: T1, specific GHB sites (high-affinity GHB binding site) (Rattus norvegicus, UniProt P11275); assay: biochemical
# T1 construct: using crude synaptic membranes prepared from rat cortex; from tissue; host or cells: rat cortex, crude synaptic membranes
# CAMK2A = target: T2, CAMK2A (Rattus norvegicus, UniProt P11275); assay: biochemical; assay type: binding; details: whole cell lysates of CAMK2A-transfected HEK293T cells
# T2 construct: host or cells: HEK293T
# T2 sequence (P11275 whole entry): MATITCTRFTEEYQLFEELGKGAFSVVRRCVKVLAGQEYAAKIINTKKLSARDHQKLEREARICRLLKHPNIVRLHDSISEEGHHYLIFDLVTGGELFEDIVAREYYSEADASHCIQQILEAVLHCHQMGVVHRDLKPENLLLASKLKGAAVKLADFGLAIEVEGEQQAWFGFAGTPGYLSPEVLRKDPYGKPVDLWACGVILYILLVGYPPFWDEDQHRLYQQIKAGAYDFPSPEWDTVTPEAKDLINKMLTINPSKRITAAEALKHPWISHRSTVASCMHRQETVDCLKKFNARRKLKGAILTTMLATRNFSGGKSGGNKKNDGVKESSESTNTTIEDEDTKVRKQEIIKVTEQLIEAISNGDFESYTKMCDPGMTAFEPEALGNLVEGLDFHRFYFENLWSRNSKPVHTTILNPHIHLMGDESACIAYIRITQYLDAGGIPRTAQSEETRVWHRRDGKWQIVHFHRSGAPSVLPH
# Description: Cells were transfected with rat CAMK2A (Origene construct RR201121) or rat CAMK2B (Origene construct RR200520) using PolyFect (Qiagen, West Sussex, UK) according to the manufacturer's protocol. Whole cell homogenates were prepared 48 hr post-transfection by washing the cells with ice-cold 1×PBS and harvesting by scraping. Cells were collected and centrifuged for 10 min at 1000×g. Cell pellets were resuspended in ice-cold 1×PBS and homogenized using 2×1 mm zirkonium beads in a bullet blender for 20 s at max speed (NextAdvance, NY, USA). Homogenates were cleared by centrifugation (10 min, 4° C., 14.000×g). Protein concentration was determined using the Bradford protein assay. 150-200 μg protein was incubated with 5 nM ^3H-A and test compound in 1 ml total volume for 1 hr at 0-4° C. […] Proteins were then precipitated by addition of ice-cold acetone (4× of the assay volume), vortexing and incubation at −20° C. for 1 hr. Proteins were filtrated rapidly through GF/C unifilters (Whatman) and washed. The dried filters were added scintillation liquid and radioactivity measured on a Tricarb 2100 Scintillation counter (Packard).
# A) Principle of photoaffinity labelling workflow. […] After introduction of biotin through a Staudinger-Bertozzi ligation to EZ-Link™ Phosphine-PEG3-Biotin (ThermoFisher Scientific), the biotin-labelled proteins were affinity-purified and subjected to LC-MS/MS analysis. […] C)^3H-A binding to cortical membranes from CAMK2A and CAMK2B knock-out mouse brains.
# Human/rat CAMK2A expressed in HEK cells was assayed in an in-house established ^3H-A filtration binding assay performed on whole cell lysates of CAMK2A-transfected HEK293T cells.
# [2] = target: T1, specific GHB sites (high-affinity GHB binding site); assay: biochemical; details: pH 6
# GABAB receptor = target: T3, GABAB receptor (Rattus norvegicus, UniProt Q9Z0U4); assay: 3H-GABA binding assay for GABAB, rat cortex membranes
# T3 construct: using crude synaptic membranes prepared from rat cortex; from tissue; host or cells: rat cortex, crude synaptic membranes
# T3 sequence (Q9Z0U4 17-960 limits assumed): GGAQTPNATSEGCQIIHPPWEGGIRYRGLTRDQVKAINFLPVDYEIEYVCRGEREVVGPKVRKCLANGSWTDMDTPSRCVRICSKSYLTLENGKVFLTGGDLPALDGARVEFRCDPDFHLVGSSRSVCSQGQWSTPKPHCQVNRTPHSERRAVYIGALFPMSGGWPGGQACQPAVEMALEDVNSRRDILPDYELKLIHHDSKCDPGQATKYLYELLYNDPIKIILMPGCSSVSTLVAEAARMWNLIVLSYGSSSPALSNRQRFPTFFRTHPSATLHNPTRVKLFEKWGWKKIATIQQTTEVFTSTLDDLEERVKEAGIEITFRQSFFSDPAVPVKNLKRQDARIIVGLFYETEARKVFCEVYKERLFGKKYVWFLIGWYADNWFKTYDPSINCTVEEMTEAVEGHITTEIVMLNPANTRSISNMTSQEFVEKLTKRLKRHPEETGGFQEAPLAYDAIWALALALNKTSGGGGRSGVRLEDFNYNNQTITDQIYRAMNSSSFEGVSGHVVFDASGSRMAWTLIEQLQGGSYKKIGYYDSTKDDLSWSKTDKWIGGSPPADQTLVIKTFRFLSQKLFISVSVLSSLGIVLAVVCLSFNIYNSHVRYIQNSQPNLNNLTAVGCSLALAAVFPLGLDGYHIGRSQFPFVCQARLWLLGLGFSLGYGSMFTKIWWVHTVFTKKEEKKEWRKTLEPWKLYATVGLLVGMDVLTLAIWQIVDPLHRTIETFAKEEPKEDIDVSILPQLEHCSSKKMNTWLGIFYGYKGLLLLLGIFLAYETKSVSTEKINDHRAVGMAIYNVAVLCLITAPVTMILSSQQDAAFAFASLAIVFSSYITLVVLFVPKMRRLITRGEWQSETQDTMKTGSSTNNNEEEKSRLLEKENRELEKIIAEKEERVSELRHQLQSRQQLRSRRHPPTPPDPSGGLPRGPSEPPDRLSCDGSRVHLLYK
# T3 sequence (O88871 41-940 partner): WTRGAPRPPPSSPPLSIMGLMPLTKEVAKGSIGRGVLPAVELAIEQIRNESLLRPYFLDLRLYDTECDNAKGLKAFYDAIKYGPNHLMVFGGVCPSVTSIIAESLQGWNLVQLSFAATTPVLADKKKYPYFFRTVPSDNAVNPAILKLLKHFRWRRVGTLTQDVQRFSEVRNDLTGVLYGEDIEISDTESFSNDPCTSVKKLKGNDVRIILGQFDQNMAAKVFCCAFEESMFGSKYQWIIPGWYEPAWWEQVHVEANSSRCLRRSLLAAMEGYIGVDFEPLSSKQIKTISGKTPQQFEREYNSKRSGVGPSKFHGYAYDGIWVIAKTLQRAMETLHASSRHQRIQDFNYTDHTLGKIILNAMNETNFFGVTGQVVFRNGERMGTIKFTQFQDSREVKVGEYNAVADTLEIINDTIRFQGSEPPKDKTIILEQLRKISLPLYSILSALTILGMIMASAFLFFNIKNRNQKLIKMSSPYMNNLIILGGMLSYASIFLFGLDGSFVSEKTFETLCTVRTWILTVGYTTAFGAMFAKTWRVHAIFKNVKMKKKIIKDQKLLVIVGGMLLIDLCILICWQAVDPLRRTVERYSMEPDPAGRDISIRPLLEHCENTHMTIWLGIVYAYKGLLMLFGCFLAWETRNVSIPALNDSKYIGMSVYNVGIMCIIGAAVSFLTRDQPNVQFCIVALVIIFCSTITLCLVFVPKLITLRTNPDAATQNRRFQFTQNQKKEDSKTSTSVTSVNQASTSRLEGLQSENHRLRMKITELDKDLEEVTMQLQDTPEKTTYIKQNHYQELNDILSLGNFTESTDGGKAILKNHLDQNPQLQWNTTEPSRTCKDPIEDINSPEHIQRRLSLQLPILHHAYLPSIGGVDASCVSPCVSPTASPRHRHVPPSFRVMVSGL
# Description: Following incubation by rapid filtration through GF/C unifilters (PerkinElmer, Boston, MA, USA), using a 96-well Packard cell-harvester (PerkinElmer) and three fast washes with ice-cold binding buffer, microscint scintillation fluid (PerkinElmer) was added to the dried filters, and the amount of filter-bound radioactivity was quantified in a Packard TopCount microplate scintillation counter (PerkinElmer). […] The binding reactions were terminated by rapid filtration through GF/C filters (Whatman), soaked in 0.1% polyethylene imine, using a Brandell 48-well harvester and rapid washing with ice-cold binding buffer. […] Data are presented as % specific binding (of control), and IC50 or Ki values calculated by means of non-linear regression curve-fitting and the Cheng-Prusoff equation, respectively.
# [3] = system: photothrombotic focal ischemia in C57BL/6J mice; assay: Photothrombotic mouse model of focal ischemia, infarct volume; assay type: in vivo; details: day 7; for infarct size: saline 5.55
# Description: (§1) All procedures were performed in accordance with the guidelines on the care and use of laboratory animals set out by the University of Otago, Animal Research Committee and the Guide for Care and Use of Laboratory Animals (NIH Publication No. 85-23, 1996). All in vivo studies were approved by the University of Otago Animal Ethics Committee and are reported according to the ARRIVE (Animal Research: Reporting In Vivo Experiments) guidelines. The photochemical cortical lesion model resembles situations of acute brain injury related clinically to stroke and traumatic brain injury (TBI). Focal ischemia was induced by photothrombosis in male C57BL/6J mice (8-10 weeks) weighing ˜23-30 g as previously described (Clarkson et al., 2010). Under anesthesia with isoflurane (2% to 2.5% in O2) mice were placed in a stereotactic apparatus, the skull exposed through a midline incision, cleared of connective tissue and dried. A cold light source (KL1500 LCD, Zeiss, Auckland, New Zealand) attached to a 40× objective providing a 2-mm diameter illumination was positioned 1.5 mm lateral from bregma. Then, 0.2 ml of Rose Bengal (Sigma-Aldrich, Auckland, New Zealand; 10 mg/ml in normal saline) was administered i.p. After 5 min, the brain was illuminated through the exposed intact skull for 15 min, while keeping body temperature at 37.0±0.3° C. degrees using a heating pad (Harvard apparatus, Holliston, MA, USA). The skin was glued and animals left in a cage placed on a heating pad during the wake-up phase. Mice were housed under a 12-hr light/dark cycle with ad libitum access to food and water. Further, the mice were monitored and weighed on a daily basis.
# (§2) For in vivo studies, all compounds were dissolved in a mixture of sterile saline and H2O to obtain isotonicity (0.9%) and administered as 10 mg/ml and 10 μl of solution per gram mouse body weight. The injection of compound (i.p.) was performed 30 min, 3, 6 or 12 hrs after induction of the photothrombotic stroke. The vehicle groups received a corresponding volume of saline (0.9%) at the same time points (30 min, 3, 6 or 12 hrs).
# For quantification of the infarcted area, animals were perfused with saline and then with 4% paraformaldehyde (PFA) and the brain dissected out and submerged in 4% PFA for post-fixing overnight. Then the brains were moved to 30% sucrose solution and kept at 4° C. until processing. Brains were cut in 30 μm sections, free-floating in anti-freeze media. Sections were mounted, stained for cresyl violet and the infarct volumes determined by measuring every 6th section through the entire infarct as described in Lie et al (2017). All analyses were performed by an observer blinded to the treatment groups. Brains from the pMCAO studies were flash-frozen in CO2 (gas) and processed into six parallel series of sections (30 μm). Separate series were collected on glass slides and used for infarct size analysis or in Eppendorf tubes and used for qPCR. The glass slides were stored at −80° C. until further processing, and then Cresyl-Violet stained and quantified as described for the photothrombotic photochemical method.
# [4] = system: photothrombotic focal ischemia in C57BL/6J mice; assay: Photothrombotic model, behavioural assessment (grid-walking and cylinder tasks); assay type: in vivo; details: day 7
# Description: as §1, §2
# Forelimb motor performance was determined using the cylinder and grid-walking tasks as previously described (Clarkson et al., 2010). All animals were tested both in a pre- and post-testing session, 1 week before and 3 days or 7 days after the ischemic insult, respectively. Observers who scored the behaviour were blinded to the treatment groups.
# [5] = system: GABAB(1) receptor knock-out mice; assay: Glucose metabolism study, 14C-2-deoxyglucose autoradiography; assay type: in vivo; details: 200 mg/kg i.p., after 45 min
# [6] = system: wild-type and GABAB receptor knock-out mice; assay: Temperature recording (hypothermia) in mice; assay type: in vivo; details: 750 mg/kg i.p., 2 hrs
# Description: Mice were pre-treated with saline injections (0.9% saline) i.p. for 4 days prior to the experiment to minimize stress on the day of the experiment. Experiments were conducted in a quiet room, in which mice were left undisturbed for at least two hrs prior to the experiment. After the i.p. injections, mice were left in their home cages for two hrs, had core body temperature recorded, and were then euthanized. The core body temperature was measured rectally by a thermometer (model DM 852; ELLAB Instruments; Copenhagen, Denmark) via a lubricated thermistor probe (model PRA-22002-A, 2.2 mm diameter; ELLAB Instruments). Mice were held at the base of the tail and measured until a stable temperature measurement was obtained.
# By contrast, compound A had no effect on hypothermia in either wild-type or knock-out mice.
# [7] = FIG. 1D, read-out: Ki, competition in the 3H-A binding assay
# [8] = 50 mg/kg i.p. 3 hrs after injury
# [9] = read-out: Ki, inhibition of 3H-B binding
# T1 sequence (P11275 whole entry): as the sequence (P11275 whole entry) above
structure (smiles),measurement,setting,value
"O=C(O)Cc1ccccc1Nc1c(Cl)cc(O)cc1Cl [4′-hydroxydiclofenac, reference compound]",pKi,[1]; [7],4.80
"O=C(O)/C=C1\CCCc2ccccc2C1O (stereo not drawn) [B, (E,RS)-6,7,8,9-tetrahydro-5-hydroxy-5H-benzocyclohept-6-ylidene acetic acid, reference compound]",pKi,CAMK2A,5.43
same,pKi,[2],6.36
"O=C(O)Cc1cc(O)ccc1Nc1c(Cl)cccc1Cl [C, 2-((2,6-dichlorophenyl)amino)-5-hydroxyphenylacetic acid]",inhibition of 3H-GABA binding to GABAB receptor,GABAB receptor; at a concentration of 1 mM,limited inhibition
"O=C(O)/C=C1\CCCc2cc(-c3ccccc3)ccc2C1O (stereo not drawn) [Compound 2, (E)-2-(5-hydroxy-2-phenyl-5,7,8,9-tetrahydro-6H-benzo[7]annulen-6-ylidene)acetic acid]",decrease of infarct size vs saline,[3]; [8],39%
same,infarct size,[3]; [8],3.4 mm^3
same,decrease of infarct size vs saline,[3]; 175 mg/kg i.p. 3 or 6 hrs after injury,38-46%
same,infarct size,[3]; 175 mg/kg i.p. 3 hrs after injury,3.44 mm^3
same,infarct size,[3]; 175 mg/kg i.p. 6 hrs after injury,2.98 mm^3
same,motor performance in both asymmetry tests,[4]; 50 mg/kg 3 hrs after injury,significantly improved
same,number of foot faults (grid-walking),"[4]; 175 mg/kg, 6 hr group",significantly reduced
same,time spent on affected paw (cylinder task),"[4]; 175 mg/kg, both 3 and 6 hrs",significantly reduced
"O=C(O)/C=C1\CCCc2cc(/C=C/c3ccccc3)ccc2C1O (stereo not drawn) [Compound 3, (E)-2-(5-hydroxy-2-((E)-styryl)-5,7,8,9-tetrahydro-6H-benzo[7]annulen-6-ylidene)acetic acid]",pKi,"[1]; pH 7.4, read-out: Ki, 3H-A binding assay",7.06
same,pKi,"[1]; read-out: Ki, inhibition of 3H-A binding, pH 6",7.30
same,pKi,[2],7.52
"O=C(O)/C=C1\CCCc2cc(Cl)ccc2C1O (stereo not drawn) [Compound 4, (E)-2-(2-chloro-5-hydroxy-5,7,8,9-tetrahydro-6H-benzo[7]annulen-6-ylidene)acetic acid]",pKi,[2]; [9],7.28
"O=C(O)/C=C1\CCCc2cc(I)ccc2C1O (stereo not drawn) [Compound 5, (E)-2-(2-iodo-5-hydroxy-5,7,8,9-tetrahydro-6H-benzo[7]annulen-6-ylidene)acetic acid]",pKi,[2]; [9],7.28
"O=C(O)/C=C1\CCCc2cc(F)ccc2C1O (stereo not drawn) [Compound 6, (E)-2-(2-fluoro-5-hydroxy-5,7,8,9-tetrahydro-6H-benzo[7]annulen-6-ylidene)acetic acid]",pKi,[2],6.97
"Cc1ccc2c(c1)CCC/C(=C\C(=O)O)C2O (stereo not drawn) [Compound 7, (E)-2-(2-methyl-5-hydroxy-5,7,8,9-tetrahydro-6H-benzo[7]annulen-6-ylidene)acetic acid]",pKi,[2],6.49
"O=C(O)/C=C1\CCCc2c(Br)cccc2C1O (stereo not drawn) [Compound 8, (E)-2-(1-bromo-5-hydroxy-5,7,8,9-tetrahydro-6H-benzo[7]annulen-6-ylidene)acetic acid]",pKi,[2],6.65
"O=C(O)/C=C1\CCCc2c(-c3ccccc3)cccc2C1O (stereo not drawn) [Compound 9, (E)-2-(1-phenyl-5-hydroxy-5,7,8,9-tetrahydro-6H-benzo[7]annulen-6-ylidene)acetic acid]",pKi,[2]; [9],6.42
"O=C(O)/C=C1\CCCc2ccc(Br)cc2C1O (stereo not drawn) [Compound 10, (E)-2-(3-bromo-5-hydroxy-5,7,8,9-tetrahydro-6H-benzo[7]annulen-6-ylidene)acetic acid]",pKi,[2]; [9],5.01
"O=C1CCCO1 [GBL, γ-butyrolactone]","cerebral metabolic rate of glucose, hippocampus",[5]; saline 9.74,6.45 nCi/ROI/min
same,"cerebral metabolic rate of glucose, frontal cortex",[5]; saline 10.46,6.78 nCi/ROI/min
same,effect on body temperature (hypothermia),[6],strong decreased in body temperature
"O=C(O)CCCO [GHB, γ-hydroxybutyric acid]",inhibition of 3H-GABA binding to GABAB receptor,GABAB receptor; at both 0.1 mM and 1 mM,could inhibit
"O=C(O)Cc1ccccc1Nc1c(Cl)cccc1Cl [diclofenac, reference compound]",pKi,[1]; [7],5.33
